Test results: article PMC5746060, “General and Modular Strategy for Designing Potent, Selective, and Pharmacologically Compliant Inhibitors of Rhomboid Proteases” (Cell Chemical Biology, 2017)
Where “and” joins values, the source holds several entries; their conditions need not be identical. Equal values may be shown once. Read-outs that look alike come from different tables or passages of the source. Starred links: 1 amine or outer side, 2 acyl side, 3 side chain; linkers in the order of their positions; H or OH if unused. Non-standard residues stand in square brackets, D forms with d. Residues, ends and D or L forms follow the SMILES beside them. *: point of attachment. NH(4-phenylbutyl) = c1ccc(CCCCN*)cc1; X1 = C[C@H](N[*:1])C(=O)C(=O)[*:2]; NHPhenethyl = c1ccc(CCN*)cc1

Assays:
rhomboid protease GlpG = molecular target: T1, rhomboid protease GlpG (Escherichia coli, UniProt P09391); test: progress-curve analysis of slow-binding inhibition of GlpG (Ki, kon, koff, modality); assay type: biochemical; conditions: for koff: Table 1; for Ki: true inhibitory constant, equals Kiapp (non-competitive)
T1 construct: made in house; host or cells: E. coli C41(DE3)
T1 sequence (P09391 whole entry): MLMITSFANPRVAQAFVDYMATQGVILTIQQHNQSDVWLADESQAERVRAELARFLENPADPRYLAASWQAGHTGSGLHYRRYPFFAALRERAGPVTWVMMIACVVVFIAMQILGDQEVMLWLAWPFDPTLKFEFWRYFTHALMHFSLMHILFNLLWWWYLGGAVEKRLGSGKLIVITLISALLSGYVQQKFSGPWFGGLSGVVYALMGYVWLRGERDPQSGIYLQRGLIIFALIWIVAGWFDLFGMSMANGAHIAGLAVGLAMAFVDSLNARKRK
Method: Figure 4 Mechanism of Inhibition of Rhomboid Protease GlpG by Peptidyl Ketoamides Analyzed Using Fluorogenic Transmembrane Peptide Substrates (A) Progress curves in the presence of increasing concentrations of compound 10 show biphasic character, which is typical for slow-binding inhibitors ([Copeland, 2013a], [Morrison, 1982]). GlpG (0.5 nM) was incubated with 25 μM substrate KSp93 in the presence of 0.05% (w/v) DDM and 0–1,333 nM 10. Fluorescence at 493 nm was followed to monitor substrate cleavage. (B) Biphasic progress curves characterized by an initial reaction rate (vi) and steady state reaction rate (vs). The progress curve at 1,333 nM compound 10 from the experiment in (A) is shown in detail, and both reaction rates obtained from non-linear regression into Equation (1) are shown as dotted lines. (C) Reversibility of inhibition by ketoamides was assessed by the rapid dilution method ([Harper et al., 1985], [Harper and Powers, 1985]). […] This solution was then rapidly diluted 100-fold either into the reaction buffer containing 10 μM substrate KSp64 ([Ticha et al., 2017]) (yielding final 10 nM inhibitor) or into the reaction buffer with 10 μM substrate KSp64 and 1,000 nM 10. For comparison, we used β-lactam L29 ([Pierrat et al., 2011]) at 1 μM and isocoumarin JLK6 ([Vinothkumar et al., 2010]) at 10 μM as known reversible and irreversible inhibitors of rhomboid proteases, respectively. Activity recovery was followed by measuring fluorescence over the course of 120 min with excitation at 553 nm and emission at 583 nm. (D) Progress curves of KSp93 cleavage at increasing concentrations of 10 measured under (A) were analyzed by non-linear regression as described for slow-binding inhibition ([Copeland, 2013a], [Morrison, 1982]) using GraphPad Prism version 7.02 for Windows (GraphPad Software, La Jolla, California, USA) to yield the rate constant for the onset of inhibition, kobs. […] Michaelis curves at the indicated inhibitor concentrations were measured by plotting vS (measured as in Figure 4B) against substrate concentration using 1 nM GlpG, 0.15% (w/v) DDM and highly sensitive substrate KSp96. […] The apparent inhibitory constants Kiapp (blue-red striped columns) and the constituent rate constants kon (red columns) and koff (blue columns) were determined from progress curve analysis as shown in (A and C) (note that Kiapp = koff/kon). […] TEXT PRINTED IN THE PICTURE: (D) compound 10: Ki^app = (123±47) nM; kon = (3.4±0.2)·10^-5 (nM^-1·min^-1); koff = (4.2±1.4)·10^-3 (min^-1) DOUBTS OF THE COPYIST ABOUT THIS PICTURE: compound 10, kon: the exponent is in very small print, read as -5 but could be -6 or -8 / compound 10, koff: the exponent is in very small print, read as -3 but could be -5 […]

TmROM = test: activity-based probe competition assay, rhomboid panel; assay type: biochemical, Thermotoga maritima; conditions: 50 μM
Description: Any enzyme inhibitors to be used as specific tools for cell biology or as starting points for drug development must show sufficient level of selectivity toward their intended target. This is particularly important for compounds that react with the catalytic nucleophile common to many serine hydrolases. Only limited tests of selectivity have been conducted for the currently used rhomboid inhibitors isocoumarins, β-lactams and β-lactones, at best interrogating them against trypsin or chymotrypsin ([Pierrat et al., 2011], [Vosyka et al., 2013]). […]
Figure 5 Selectivity of Peptidyl Ketoamides (A) Selectivity of compounds 9, 10, and 11 for nine rhomboid proteases was profiled using activity-based probe competition assay at 50 μM and 0.5 μM concentration. […] (B) Selectivity of compounds 9, 10, and 11 against human serine hydrolases was analyzed using EnPlex as described ([Bachovchin et al., 2014]).
For inhibitor selectivity profiling against rhomboid proteases ([Wolf et al., 2015]), 400 ng of a purified protein preparation of E. coli GlpG was diluted in 30 μL of reaction buffer (20 mM HEPES, pH 7.4, with 0.05% (w/v) DDM). […] Gels were scanned on a Typhoon Trio+ and analyzed using ImageJ. The intensity of each rhomboid protease band calculated by ImageJ was normalized against its corresponding DMSO-treated counterpart (100% activity) to indicate the residual activity left after inhibition. […]

Row | Compound | koff (rhomboid protease GlpG) [s⁻¹] | Ki (rhomboid protease GlpG; read-out: Ki) | inhibition of ABP labeling of TmROM (TmROM) | Ki (rhomboid protease GlpG; Ki) [nM]
1 | CC(=O)N[C@@H](CCCNC(=N)N)C(=O)N[C@H](C(=O)N[C@@H](CCCNC(=N)N)C(=O)N[C@@H](Cc1c[nH]cn1)C(=O)N[C@@H](C)C(=O)C(=O)NCCc1ccccc1)C(C)C [compound 9, Ac-RVRHA-CONH-phenylethyl] (Ac-RVRH[X1]-NHPhenethyl) | 0.0002 | 219 nM and 220 nM | only partially inhibited | –
2 | CC(=O)N[C@@H](CCCNC(=N)N)C(=O)N[C@H](C(=O)N[C@@H](CCCNC(=N)N)C(=O)N[C@@H](Cc1c[nH]cn1)C(=O)N[C@@H](C)C(=O)C(=O)NCCCCc1ccccc1)C(C)C [compound 11, Ac-RVRHA-CONH-phenylbutyl] (Ac-RVRH[X1]-{NH(4-phenylbutyl)}) | 6.5e-05 | – | only partially inhibited | 45 ± 8
